This is an account of results in ChEMBL document CHEMBL1127650, “Investigation of the active site of aminopeptidase A using a series of new thiol-containing inhibitors” (J Med Chem, 1994).

Test [1] deals with Glutamyl aminopeptidase (Oryctolagus cuniculus). The test can be described thus: Inhibition of aminopeptidase A (APA) at 0.4 mM.
The target in a further test is Aminopeptidase B (Homo sapiens, UniProt Q9H4A4). The test can be described thus: Inhibition of arginylaminopeptidase (aminopeptidase B). On the set-up: species or system Oryctolagus cuniculus.
Chain of Aminopeptidase B (Q9H4A4 whole entry): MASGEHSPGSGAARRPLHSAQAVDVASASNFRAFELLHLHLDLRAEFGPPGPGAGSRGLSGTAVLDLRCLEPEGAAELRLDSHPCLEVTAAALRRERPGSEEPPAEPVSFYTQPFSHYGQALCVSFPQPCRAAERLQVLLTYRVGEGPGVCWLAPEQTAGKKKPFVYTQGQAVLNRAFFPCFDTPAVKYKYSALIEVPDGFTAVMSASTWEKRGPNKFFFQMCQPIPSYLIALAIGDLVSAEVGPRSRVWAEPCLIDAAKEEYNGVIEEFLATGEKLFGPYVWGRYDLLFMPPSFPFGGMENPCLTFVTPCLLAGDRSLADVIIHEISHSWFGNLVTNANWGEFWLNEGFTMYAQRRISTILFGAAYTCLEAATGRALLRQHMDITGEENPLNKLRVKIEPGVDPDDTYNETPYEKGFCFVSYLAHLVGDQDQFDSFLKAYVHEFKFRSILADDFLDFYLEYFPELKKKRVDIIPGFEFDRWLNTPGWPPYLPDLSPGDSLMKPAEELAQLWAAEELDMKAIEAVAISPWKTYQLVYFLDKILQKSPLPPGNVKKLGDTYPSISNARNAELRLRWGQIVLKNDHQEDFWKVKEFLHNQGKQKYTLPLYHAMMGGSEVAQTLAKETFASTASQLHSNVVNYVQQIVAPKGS

The compound `NC(CC(=O)NO)Cc1ccccc1` (centres undefined) registered an inhibition in test [1] of 0%. Same read-out and setting: with `NC(CC(=O)O)Cc1ccccc1` (centres undefined) the figure was 0%.

`NC(Cc1ccccc1)CP(=O)(O)O` (centres undefined) had an inhibition in test [1] of 13%. The compound `NCCCCC(S)C(=O)O` (centres undefined) came in with a Ki at Aminopeptidase B of 0.9 nM.

A word on the inhibition: it is the share of the control response that was lost under treatment. Lower therefore signals a weak effect. In general, Ki refers to the dissociation constant of the complex between target and ligand, obtained from inhibition or displacement. A high value points to weaker binding.
